Source: US9388179B2, “N-substituted indazole sulfonamide compounds with selective activity in voltage-gated sodium channels” (Merck Sharp & Dohme Corp., priority 2012, dated 2016)

Experiments:
Assay type in all cases: cell-based
Nav 1.7 = target: T1, Nav 1.7 (Homo sapiens, UniProt Q15858); experiment: Comparative examples, Nav 1.7 activity (Patch Express or Ion Works, technique not given); details: Table IX, read-out: Activity: Nav 1.7 potency
T1 construct: expressed in transfected cells; host or cells: HEK 293
Method: (§1) Potency of the example compounds was assayed using Patch Express or Ion Works techniques, as reported herein. The results are reported below following each example number as follows: Ex-(no.) Nav 1.7 potency (nM) [ratio 1.5:1.7=Nav 1.5 potency (nM)/Nav1.7 potency (nM)].

Nav 1.5 = target: T2, Nav 1.5 (Homo sapiens, UniProt Q14524); experiment: Comparative examples, Nav 1.5 activity (Patch Express or Ion Works, technique not given); details: Table IX
T2 construct: expressed in transfected cells; host or cells: HEK 293
T2 sequence (Q14524 whole entry): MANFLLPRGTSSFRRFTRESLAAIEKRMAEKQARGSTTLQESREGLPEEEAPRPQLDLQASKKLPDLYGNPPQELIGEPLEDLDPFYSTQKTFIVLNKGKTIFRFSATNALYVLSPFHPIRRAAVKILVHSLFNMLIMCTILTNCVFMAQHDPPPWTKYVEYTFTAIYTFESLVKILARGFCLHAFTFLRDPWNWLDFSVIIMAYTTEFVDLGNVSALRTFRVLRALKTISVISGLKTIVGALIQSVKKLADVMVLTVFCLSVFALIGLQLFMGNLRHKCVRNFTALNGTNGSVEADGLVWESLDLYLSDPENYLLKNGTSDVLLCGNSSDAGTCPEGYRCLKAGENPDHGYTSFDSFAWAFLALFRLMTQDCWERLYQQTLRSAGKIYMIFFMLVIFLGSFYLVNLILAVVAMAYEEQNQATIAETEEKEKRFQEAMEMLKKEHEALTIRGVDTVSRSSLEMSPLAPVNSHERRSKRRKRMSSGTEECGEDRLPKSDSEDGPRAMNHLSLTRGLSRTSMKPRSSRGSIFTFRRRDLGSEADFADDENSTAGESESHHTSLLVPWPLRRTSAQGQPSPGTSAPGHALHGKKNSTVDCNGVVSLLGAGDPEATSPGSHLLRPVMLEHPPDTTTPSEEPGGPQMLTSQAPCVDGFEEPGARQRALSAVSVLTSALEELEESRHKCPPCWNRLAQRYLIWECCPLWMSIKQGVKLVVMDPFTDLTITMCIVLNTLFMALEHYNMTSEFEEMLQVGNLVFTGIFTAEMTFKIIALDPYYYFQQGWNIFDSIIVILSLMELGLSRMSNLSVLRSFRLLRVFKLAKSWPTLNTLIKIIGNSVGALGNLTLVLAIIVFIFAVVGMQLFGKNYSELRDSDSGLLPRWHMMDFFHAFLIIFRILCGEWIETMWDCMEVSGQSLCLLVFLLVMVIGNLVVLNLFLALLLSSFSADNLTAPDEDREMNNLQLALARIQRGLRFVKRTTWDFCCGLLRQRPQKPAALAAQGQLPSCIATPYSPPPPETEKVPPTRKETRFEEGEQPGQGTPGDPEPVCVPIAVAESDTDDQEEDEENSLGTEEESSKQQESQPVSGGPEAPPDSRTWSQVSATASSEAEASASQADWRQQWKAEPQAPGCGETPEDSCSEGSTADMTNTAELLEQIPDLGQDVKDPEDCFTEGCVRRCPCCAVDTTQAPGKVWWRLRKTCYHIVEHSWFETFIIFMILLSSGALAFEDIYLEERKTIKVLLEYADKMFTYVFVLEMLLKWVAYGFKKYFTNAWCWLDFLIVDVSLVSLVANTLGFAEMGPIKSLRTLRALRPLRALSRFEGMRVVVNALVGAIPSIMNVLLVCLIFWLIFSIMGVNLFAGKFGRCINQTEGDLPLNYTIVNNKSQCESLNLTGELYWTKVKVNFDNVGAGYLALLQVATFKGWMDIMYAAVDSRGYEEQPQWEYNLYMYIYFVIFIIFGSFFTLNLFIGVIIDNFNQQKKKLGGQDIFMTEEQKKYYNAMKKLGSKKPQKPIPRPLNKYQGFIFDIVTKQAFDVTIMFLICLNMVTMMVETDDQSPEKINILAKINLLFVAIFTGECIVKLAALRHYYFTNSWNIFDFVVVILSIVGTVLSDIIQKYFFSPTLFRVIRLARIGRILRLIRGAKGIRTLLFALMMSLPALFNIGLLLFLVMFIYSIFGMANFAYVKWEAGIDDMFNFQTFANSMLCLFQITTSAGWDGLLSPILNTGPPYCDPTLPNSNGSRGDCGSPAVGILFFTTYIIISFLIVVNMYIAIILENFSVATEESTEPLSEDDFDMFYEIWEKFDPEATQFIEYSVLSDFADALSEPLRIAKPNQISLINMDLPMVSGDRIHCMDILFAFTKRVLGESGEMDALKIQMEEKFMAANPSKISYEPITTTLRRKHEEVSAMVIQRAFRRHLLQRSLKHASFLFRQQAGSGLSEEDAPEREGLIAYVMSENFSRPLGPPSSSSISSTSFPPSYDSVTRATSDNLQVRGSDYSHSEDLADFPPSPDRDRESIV
Method: as §1

[1] = target: T3, human Nav1.5 channels stably expressed in HEK 293 cells (Homo sapiens, UniProt Q14524); experiment: IonWorks Quattro automated patch-clamp, inactivated state block; details: IonWorks technique
T3 construct: expressed in transfected cells; host or cells: HEK 293
T3 sequence (Q14524 whole entry): as above
Method: (§2) For all electrophysiology experiments, offline analysis was used to correct for current rundown and to determine percent inhibition as a function of drug concentration. IC50 values were determined by fitting to the Hill equation.
(§3) Cell Based Assays for Nav 1.7 and Nav 1.5 Activity
(§4) Compounds were tested on human Nav1.7 and Nav1.5 channels stably expressed in HEK 293 cells. […] Cells were sealed on a planar substrate using the Population Patch […] (PPC) technology. Electrical access was obtained using both nystatin and amphotericin. A double-pulse protocol was used for the determination of IC50 values for inactivated state block. Nav1.7 and Nav1.5 expressing cells were voltage clamped at −100 mV and −110 mV, respectively. A depolarizing prepulse to −10 mV (Nav1.7) or −30 mV (Nav1.5) for 1000 ms followed by a 10 ms repolarization to −100 mV (Nav1.7) or −110 mV (Nav1.5) was given to generate fractional channel inactivation of 50%, followed by a 10 ms test pulse to −10 mV (Nav1.7) or −30 mV (Nav1.5) to measure peak current in control conditions and after compound addition. The following recording solutions were used (mM). External: 150 NaCl, 2 CaCl2, 5 KCl, 1 MgCl2, 10 HEPES, 12 Dextrose; internal: 120 CsF, 30 CsCl, 10 EGTA, 5 HEPES, 5 NaF, 2 MgCl2.

[2] = target: T4, human Nav1.7 channels stably expressed in HEK 293 cells (Homo sapiens, UniProt Q15858); experiment: as above; details: IonWorks technique; read-out: Nav 1.7 potency
T4 construct: expressed in transfected cells; host or cells: HEK 293
Method: as §2, §3, §4

[3] = target: T3, human Nav1.5 channels stably expressed in HEK 293 cells; experiment: PatchXpress 7000 automated patch-clamp, inactivated state block; details: PatchXpress technique
Method: as §2
(§5) Sodium Current Measurements on the PatchXpress 7000®:
(§6) To measure inactivated state block of sodium channels, test compounds were characterized in an automated PatchXpress® assay (Molecular Devices) using a double-pulse protocol on human Nav1.7 and Nav1.5 channels stably expressed in HEK 293 cells. Cells were held at a potential 20 mV negative to V0.5 inact. An 8000 ms pre-pulse 7 mV positive to V0.5 inact was given followed by a hyperpolarizing 2 ms pulse to −120 mV and a 20 ms test pulse to −20 mV. Protocol was applied to cells in the absence, presence of compound and after washout. The temperature of PatchXpress instruments was maintained at 22° C. The following recording solutions were used. Internal solution (mM): 30 CsCl, 5 HEPES, 10 EGTA, 120 CsF, 5 NaF, 2 MgCl2. External solution (mM): 120 NMDG, 40 NaCl, 1 KCl, 0.5 MgCl2, 5 HEPES, 2.7 CaCl2.

[4] = target: T4, human Nav1.7 channels stably expressed in HEK 293 cells; experiment: as above; details: PatchXpress technique; read-out: Nav 1.7 potency
Method: as §2, §5, §6

SMILES	IC50 (Nav 1.7) [nM]	Activity: Ratio 1.5:1.7 (Nav 1.5)	Ratio 1.5:1.7 = Nav 1.5 potency (nM)/Nav1.7 potency (nM) [1]	IC50 [2] [nM]	Ratio 1.5:1.7 = Nav 1.5 potency (nM)/Nav1.7 potency (nM) [3]	IC50 [4] [nM]
Nc1cc(-c2cc(Cl)ccc2Cn2ncc3cc(S(=O)(=O)Nc4ncns4)ccc32)ccn1 [CE-01, 1-(2-(2-aminopyridin-4-yl)-4-chlorobenzyl)-N-(1,2,4-thiadiazol-5-yl)-1H-indazole-5-sulfonamide]	27000	1				
O=S(=O)(Nc1nccs1)c1ccc2nn(Cc3ccc(OC(C(F)(F)F)(C(F)(F)F)C(F)(F)F)cc3)cc2c1 [CE-03, 2-(4-(1,1,1,3,3,3-hexafluoro-2-(trifluoro-methyl)propan-2-yloxy)benzyl)-N-(thiazol-2-yl)-2H-indazole-5-sulfonamide]	33000	1				
O=S(=O)(Nc1ncc(Cl)s1)c1cc2cnn(Cc3cccc4c3CNCC4)c2cc1F [Ex-3, N-(5-chlorothiazol-2-yl)-6-fluoro-1-((1,2,3,4-tetrahydroisoquinolin-8-yl)methyl)-1H-indazole-5-sulfonamide]			91	328	636	52
O=S(=O)(Nc1nccs1)c1ccc2c(cnn2Cc2ccc(OC(C(F)(F)F)(C(F)(F)F)C(F)(F)F)cc2)c1 [CE-02, 1-(4-(1,1,1,3,3,3-hexafluoro-2-(trifluoro-methyl)propan-2-yloxy)benzyl)-N-(thiazol-2-yl)-1H-indazole-5-sulfonamide]	33000	1				
O=S(=O)(Nc1cccc(F)n1)c1cc2cnn(Cc3cccc4c3CNCC4)c2cc1F [Ex-4, 6-fluoro-N-(6-fluoropyridin-2-yl)-1-((1,2,3,4-tetrahydroisoquinolin-8-yl)methyl)-1H-indazole-5-sulfonamide]			58	519	64	855
NC/C=C/c1ccccc1Cn1ncc2cc(S(=O)(=O)Nc3ncns3)ccc21 [Ex-15, 1-{2-[(1E)-3-aminoprop-1-en-1-yl]benzyl}-N-1,2,4-thiadiazol-5-yl-1H-indazole-5-sulfonamide]			207	159	237	127
NC/C=C/c1cc(Cl)ccc1Cn1ncc2cc(S(=O)(=O)Nc3ncns3)ccc21 [Ex-16, 1-{2-[(1E)-3-aminoprop-1-en-1-yl]-4-chlorobenzyl}-N-1,2,4-thiadiazol-5-yl-1H-indazole-5-sulfonamide]			81	413	32	939
NC1CCc2cccc(Cn3ncc4cc(S(=O)(=O)Nc5ncns5)c(F)cc43)c2C1 (single isomer, unassigned) [Ex-14, (S or R)-1-((7-amino-5,6,7,8-tetrahydronaphthalen-1-yl)methyl)-6-fluoro-N-(1,2,4-thiadiazol-5-yl)-1H-indazole-5-sulfonamide]			1394	24	1480	21
C[C@H](c1cccc2c1CNCC2)n1ncc2cc(S(=O)(=O)Nc3ncns3)c(F)cc21 [Ex-6, (R)-6-fluoro-1-(1-(1,2,3,4-tetrahydroisoquinolin-8-yl)ethyl)-N-(1,2,4-thiadiazol-5-yl)-1H-indazole-5-sulfonamide]			1066	21	320	94
C[C@@H](c1cccc2c1CNCC2)n1ncc2cc(S(=O)(=O)Nc3ncns3)c(F)cc21 [Ex-64, (S)-6-fluoro-1-(1-(1,2,3,4-tetrahydroisoquinolin-8-yl)ethyl)-N-(1,2,4-thiadiazol-5-yl)-1H-indazole-5-sulfonamide]			42	777	36	833
